In patent US20190231730A1, “TREATMENT OF A DISEASE MEDIATED BY ARACHIDONIC ACID OR AN EICOSANOID” (priority 2016, published 2019):

Tests used:
patient with psoriasis = assay: Topical formulation in patients with psoriasis; settings: approximately 30 patients
Procedure: (§1) The formulation was applied under arm pits (topically) to patients suffering from Cystic Fibrosis, psoriasis, ulcerative colitis and Ankylosing Spondylitis. Six patients suffering from Cystic fibrosis were administered this formulation once monthly.

[1] = system: patients suffering from Cystic Fibrosis; settings: six patients; topical under arm pits, once monthly; 0.01-1 microgram in DMSO
Procedure: as §1

[2] = system: patients with Ankylosing Spondylitis; settings: three patients
[3] = system: patients with ulcerative colitis; settings: one patient
[4] = system: oesophageal adenocarcinoma; settings: rat model; LTA4 hydrolase inhibitor, inhibition of LTB4 synthesis; cited from earlier work

Compound	duration of symptom-free state in psoriasis (patient with psoriasis)	healing of psoriatic lesions on skin (patient with psoriasis)	clinical benefit and symptoms in Cystic Fibrosis [1]	symptoms of Ankylosing Spondylitis [2]	decrease in all ulcerative mediations [3]	reversal of symptomatology in ulcerative colitis [3]	burden of oesophageal adenocarcinoma [4]
CCCCC/C=C\C/C=C\C/C=C\CC#CCCCC(=O)O [5,6-dehydro arachidonic acid]	remained symptom free for years	completely healed their psoriatic lesions	significant clinical benefit and reduction of symptoms	helped them with the symptoms	100%	100%	
CC(C)C[C@H](NC(=O)[C@@H](O)[C@H](N)Cc1ccccc1)C(=O)O [bestatin]							reduced the burden of oesophageal adenocarcinoma
